Values quoted from earlier work in US20100240621A1, “TOPICAL PHARMACEUTICAL COMPOSITION FOR THE COMBINATION OF FUSIDIC ACID AND A CORTICOSTEROID” (priority 2007, published 2010).

Legend:
[1] = test system: oxacillin-sensitive staphylococcus aureus; conditions: at a concentration of 0.12 mg/L
[2] = test system: oxacillin-resistant staphylococcus aureus; conditions: at a concentration of 2 mg/L
[3] = test system: staphylococcus epidermidis; conditions: at 4 mg/L
[4] = solution, cream, and ointment formulations
[5] = in vivo

SMILES | oxacillin-sensitive staphylococcus aureus inhibited [1] | concentration at which 90% of organisms inhibited (Propionibacterium Danes) | oxacillin-resistant staphylococcus aureus inhibited [2] | concentration at which 90% of organisms inhibited (most Bacteroides species) | staphylococcus epidermidis inhibited [3] | concentration at which 90% of organisms inhibited (Clostridium species) | concentration at which 90% of organisms inhibited (Peptococcus species) | potency class by vasoconstrictor assay [4] | applied dose entering the circulation [5]
CC(=O)O[C@H]1C[C@@]2(C)[C@@H](C[C@@H](O)[C@H]3[C@@]4(C)CC[C@@H](O)[C@@H](C)[C@@H]4CC[C@@]32C)/C1=C(\CCC=C(C)C)C(=O)O [Fusidic acid] | 100% | ≤ 2 mg/L | At least 99% | ≤ 2 mg/L | 99% | ≤ 2 mg/L | ≤ 2 mg/L | – | –
CCC(=O)O[C@]1(C(=O)CCl)[C@@H](C)C[C@H]2[C@@H]3C[C@H](F)C4=CC(=O)C=C[C@]4(C)[C@@]3(F)[C@@H](O)C[C@@]21C [Halobetasol propionate] | – | – | – | – | – | – | – | super high-potency | less than 6%
